Laboratory results taken from patent US12552854B2, “Peptides that block presentation of antigenic islet peptides by HLA-DQ8 and methods for treating type-1 diabetes” (Icahn School of Medicine at Mount Sinai, priority 2019, dated 2026).
Entries after “also recorded” stand apart in the source; their conditions may differ.

Experiments:
[1] = tested on: PBMCs isolated from DQ8 positive T1D patients; experiment: CFSE T-cell proliferation in PBMCs from DQ8 positive recent-onset T1D patients; format: cell-based, human; conditions: all peptides at 50 μg/ml
Text: (§1) Subjects with a diagnosis of T1D within the previous 2 years were recruited from the Pediatric Endocrine clinic at Children Hospital at Montefiore and from the adult Endocrine clinics at Montefiore and Mount Sinai Hospitals (New York). Peripheral blood mononuclear cells (PBMCs) were isolated from heparinized blood using Ficoll-Paque (GE Healthcare); freshly isolated PBMCs were used for T-cell activation studies and for genotyping. DNA purified from the blood of the patients was typed for HLA-DQ as previously described (32). PBMCs isolated from DQ8 positive patients were seeded in 96 well plates with 200 μl medium (RPMI, 10% FBS). […] The stimulated PBMCs were assessed for cytokine production and T-cell proliferation as described above for mouse splenocytes. DQ8 typed patients with long standing T1D (>10 years) were used as negative controls in the experiments (no T-cell responses to islet peptides).

[2] = tested on: PBMCs isolated from DQ8 positive T1D patients; experiment: Cytokine production in PBMCs from DQ8 positive recent-onset T1D patients; format: cell-based, human; conditions: stimulated with InsB:9-23 for 48 h; all peptides at 50 μg/ml
Text: as §1

[3] = biological target: T1, recombinant HLA-DQ8 protein (Homo sapiens, UniProt P01909+P01920); experiment: DELFIA immunoassay: inhibition of biotinylated InsB:9-23 binding to recombinant HLA-DQ8
T1 construct: contained the extracellular portion of the DQA1*0301 α chain fused to the coiled-coil region of the basic leucine zipper domain of Fos; contained the extracellular portion of the DQB1*0302 β chain fused to the coiled-coil region of the basic leucine zipper domain of JunB; Fos leucine zipper (coiled-coil region) (C); TEV protease site (internal); His6; JunB leucine zipper (coiled-coil region) (C); FLAG; host or cells: baculovirus system
T1 sequence (P01909 with tags, fused parts or gaps with the stated changes): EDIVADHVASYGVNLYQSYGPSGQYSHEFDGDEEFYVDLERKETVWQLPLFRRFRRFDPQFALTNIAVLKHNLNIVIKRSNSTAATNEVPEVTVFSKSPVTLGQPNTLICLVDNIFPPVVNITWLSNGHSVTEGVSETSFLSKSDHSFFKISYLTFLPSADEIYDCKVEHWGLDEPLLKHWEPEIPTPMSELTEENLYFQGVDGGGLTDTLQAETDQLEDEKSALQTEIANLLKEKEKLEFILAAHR
T1 sequence (P01920 with tags, fused parts or gaps A45G/Y58L/E77G/D89A/H199R/T217I): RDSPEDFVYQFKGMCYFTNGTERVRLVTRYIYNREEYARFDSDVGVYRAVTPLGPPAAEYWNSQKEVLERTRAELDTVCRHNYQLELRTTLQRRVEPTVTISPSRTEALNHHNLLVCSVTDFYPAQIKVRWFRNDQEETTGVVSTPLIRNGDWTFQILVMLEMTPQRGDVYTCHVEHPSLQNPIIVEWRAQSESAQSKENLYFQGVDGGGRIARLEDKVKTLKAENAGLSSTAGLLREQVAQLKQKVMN
Text: HLA-DQ8 protein was produced using the baculovirus system. Two constructs were designed for both the α and the β chains of HLA-DQ8. The β chain construct contained the extracellular portion of the DQB1*0302 β chain fused to the coiled-coil region of the basic leucine zipper domain of JunB, and the α chain construct contained the extracellular portion of the DQA1*0301 α chain fused to the coiled-coil region of the basic leucine zipper domain of Fos. […] A tobacco etch virus protease cutting site was introduced in each chain to allow removal of the dimerization motif. The JunB and Fos dimerization motifs were added in order to allow the α and β chains to dimerize and form the final HLA-DQ8 protein (FIG. 12A). These constructs were used to produce the HLA-DQ8 protein in a baculovirus system using the Life Technologies Baculovirus protein production custom services (Carlsbad, CA).
D-peptides were produced by Fisher Scientific (Hanover Park, IL) in dry form and dissolved in PBS. All D-peptides were screened at a concentration of 10 μM for their ability to bind to the HLA-DQ8 pocket and block it from binding the InsB:9-23 peptide using a unique immunoassay (23). […] After washing 4 times, DELFIA Europium-labeled streptavidin (PerkinElmer) diluted in DELFIA assay buffer (PerkinElmer) was added for 30 minutes and shaken at slow speed at room temperature. Since the InsB:9-23 peptide was biotinylated the complex HLA-DQ8-InsB:9-23 peptide could be detected using the Europium-labeled streptavidin. After washing for 6 times, DELFIA Enhancement Solution was added for 1 hour or until the optimal signal was reached. Time-resolved fluorescence was measured using the BMG reader (BMG Labtech, Cary, NC). The experiment was performed in triplicate. As a negative control biotinylated InsB:9-23 peptide that was not pre-incubated with HLA-DQ8 was added to the nickel coated plates.
Immunoassay was performed as described above.

[4] = tested on: splenocytes isolated from SJL-DQ8 mice; experiment: Ex vivo CFSE T-cell proliferation, splenocytes of InsB:9-23-immunized SJL-DQ8 mice; format: cell-based, mouse; conditions: all peptides at 50 μg/ml; 5 days
Text: ID NO: 23) and reverse primer [NT]

[5] = tested on: lymphocytes isolated from SJL-DQ8 mice immunized with GAD65; experiment: Ex vivo T-cell activation to GAD65 peptide, lymphocytes of GAD65-immunized SJL-DQ8 mice; format: cell-based, mouse; conditions: all peptides at 20 μg/ml; 48 hours
Procedure: The mouse model used in this experiment was SJL-DQ8 mice. When immunized with different type 1 diabetes associated peptides, they developed strong T-cell responses to these peptides. In the ex vivo model, lymphocytes were taken from the spleen of these mice after immunization with an Insulin or GAD65 peptide. They were then stimulated with the peptide used for immunizations and the tested D-peptide was added to see if it blocked T-cell stimulation as measured by IL-2 and interferon γ (IFNγ) production (FIGS. 18 and 19).
The cells were treated with medium or GAD65 (with or without D-peptides), all peptides at 20 μg/ml. Supernatants from stimulated lymphocytes were collected 48 hours after stimulation and stored at −80° C. until the Luminex assay was performed. The Milliplex mouse cytokines/chemokines magnetic panel (EMD Millipore Corporation, Billerica, MA) and a Luminex 200 with xPONENT software (Luminex, Austin, Texas) were used to assay the cytokines following the manufacturer's instructions.

Structure (SMILES): CC(C)C[C@@H](NC(=O)[C@@H](Cc1ccc(O)cc1)NC(=O)[C@@H](CC(C)C)NC(=O)[C@H](NC(=O)[C@@H](CS)NC(=O)CNC(=O)[C@@H](CCC(=O)O)NC(=O)[C@@H](CCCNC(=N)N)NC(=O)CNC(=O)CN)C(C)C)C(=O)N[C@H](C)C(=O)N[C@H](CCC(=O)O)C(=O)N[C@@H](C(=O)NCC(=O)NCC(=O)O)C(C)C [RI-CT]
- T-cell proliferation induced by InsB:9-23 (CFSE assay), PBMCs of DQ8 positive T1D patients [1]: significantly suppressed; also recorded: significantly decreased
- IFN-γ production, PBMCs of DQ8 positive T1D patients [2]: significantly suppressed; also recorded: significantly decreased
- IL-2 production, PBMCs of DQ8 positive T1D patients [2]: significantly suppressed; also recorded: significantly decreased
- inhibition of InsB:9-23 binding to HLA-DQ8 (in words) ([3]; D-peptides screened at 10 μM, recombinant HLA-DQ8): significant inhibition
- dose dependence of the inhibition of InsB:9-23 binding to HLADQ8 ([3]; serially diluted to 0.5 μM, FIG. 3D): dose-dependent
- T-cell proliferation induced by InsB:9-23 (CFSE assay), SJL-DQ8 splenocytes [4]: significantly suppressed; also recorded: significantly decreased
- blocking T cell activation ex vivo to GAD65 (IL-2, IFNγ production) [5]: some activity
